Assays:
[1] = target: T1, Human IDO1 (Homo sapiens, UniProt P14902); assay: IDO Kynurenine Assay with Human IDO1/HEK293 Cells; assay type: cell-based; details: 20 hours incubation, kynurenine absorbance at 490 nm, read-out: HEK human IDO-1 (IC50)
T1 construct: expressed in transfected cells; host or cells: HEK293
Description: IDO Kynurenine Assay with Human IDO1/HEK293 Cells
Human IDO1/HEK293 cells were seeded at 10,000 cells per 50 uL per well with RPMI/phenol red free media contains 10% FBS in a 384-well black wall clear bottom tissue culture plate (Matrix Technologies LLC) 125 nL of certain concentration of compound was then added to each well using ECHO liquid handling systems. The cells were incubated for 20 hours in 37° C. incubator with 5% CO2.
(§1) The compound treatments were stopped by adding Trichloroacetic Acid (Sigma-Aldrich) to a final concentration at 0.2%. The cell plate was further incubated at 50° C. for 30 minute. The equal volume supernatant (20 uL) and 0.2% (w/v) Ehrlich reagent (4-dimethylaminobenzaldehyde, Sigma-Aldrich) in glacial acetic acid were mixed in a new clear bottom 384-well plate. This plate was then incubated at room temperature for 30 minute. The absorbance at 490 nm was measured on Envision plate reader.
Compound IC50 values were calculated using the counts of 500 nM of a reference standard treatment as one hundred percent inhibition, and counts of no compound but DMSO treatment as zero percent inhibition.

[2] = target: T2, IDO (IFNγ-treated Hela cells) (Homo sapiens, UniProt P14902); assay: IDO Kynurenine Assay with Hela Cells; assay type: cell-based; details: IFNγ 10 ng/ml, 20 hours incubation, kynurenine absorbance at 490 nm, read-out: Hela Cells LLE_IDO_ABS_DR (IC50)
T2 construct: endogenous in cells; host or cells: Hela cells treated with IFNγ (10 ng/ml)
Description: IDO Kynurenine Assay with Hela Cells
Hela cells were seeded at 30,000 cells per well in 40 ul RPMI/phenol red free media contains 10% FBS in a 384-well black wall clear bottom tissue culture plate (Matrix Technologies LLC). 270 nl of certain concentration of compound was then added to each well using ECHO liquid handling systems. 40 ul of IFNγ (R&D, 285-IF-100) at final concentration of 10 ng/ml was then added to column 2-24 with media to column 1 as control. The cells were incubated for 20 hours in 37° C. incubator with 5% CO2.
as §1, with “trichloroacetic acid” for “Trichloroacetic Acid”
Compound IC50 values were calculated using the counts of no IFNγ control as one hundred percent inhibition, and counts of no compound but DMSO treatment as zero percent inhibition.

T2 sequence (P14902 whole entry): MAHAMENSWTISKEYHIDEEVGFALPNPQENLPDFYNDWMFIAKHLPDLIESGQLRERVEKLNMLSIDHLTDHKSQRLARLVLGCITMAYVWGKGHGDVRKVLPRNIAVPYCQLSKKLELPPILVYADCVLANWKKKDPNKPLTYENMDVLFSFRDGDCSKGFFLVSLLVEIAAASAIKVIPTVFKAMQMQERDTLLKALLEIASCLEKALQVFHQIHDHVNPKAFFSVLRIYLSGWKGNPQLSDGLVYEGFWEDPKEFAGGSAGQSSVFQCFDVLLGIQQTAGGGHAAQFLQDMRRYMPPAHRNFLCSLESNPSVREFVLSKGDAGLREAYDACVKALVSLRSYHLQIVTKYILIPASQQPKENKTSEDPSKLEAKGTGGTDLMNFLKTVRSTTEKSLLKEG
T1 sequence (P14902 whole entry): as above

`CC(C)CN(CC(C)C)c1ccc(-c2ccccc2-c2nnn[nH]2)cc1NC(=O)Cc1cccs1` [Example 65] was tested, and the IC50 [1] was 20 nM.

For `Cc1ccc(CC(=O)Nc2cc(-c3ccccc3-c3nnn[nH]3)ccc2N(Cc2ccccc2)CC(C)C)cc1` [Example 74], the IC50 [1] was 10 nM and the IC50 [2] was 3.06 nM.

With `Cc1cc(CC(=O)Nc2cc(-c3cc(F)ccc3C(=O)O)c(F)cc2N(CC(C)C)C2CCCCC2)on1` [Example 87] the IC50 [1] was 140 nM.

In the case of `Cc1cc(CC(=O)Nc2cc(-c3cc(F)ccc3C(=O)O)ccc2N(CC(C)C)C2CCCCC2)on1` [Example 77], the IC50 [1] is reported as 300 nM.

With `Cc1ccc(CC(=O)Nc2cc(-c3cc(F)ccc3C(=O)O)cc(F)c2N(CC(C)C)C2CCCCC2)cc1` [Example 60] the IC50 [1] was 30 nM.

`CC(C)CN(CC(C)C)c1ccc(-c2ccccc2-c2nnn[nH]2)cc1NC(=O)Cc1ccc(Cl)nc1` [Example 67] gave an IC50 [1] of 20 nM.

`CC(C)CN(CCOC(C)C)c1ccc(-c2cc(F)ccc2C(=O)O)cc1NC(=O)Cc1ccc(C#N)cc1` [Example 70] showed an IC50 [1] of 2930 nM.

Work on `O=C(Cc1ccccc1C(F)(F)F)Nc1cc(-c2ccccc2-c2nnn[nH]2)ccc1N1CC2CC1CN2Cc1ccccc1` (stereo not shown) [Example 81] yielded an IC50 [1] of 110 nM and an IC50 [2] of 100 nM.

`CC(C)CN(CCOC(C)C)c1ccc(-c2ccccc2-c2nnn[nH]2)cc1NC(=O)Cc1ccc(C#N)cc1` [Example 69] gave an IC50 [1] of 170 nM.

In the case of `COC(C)(C)CCN(c1ccc(-c2ccccc2-c2nnn[nH]2)cc1NC(=O)Cc1ccc(C)nc1)C1CCCCC1` [Example 56], the IC50 [1] is reported as 7440 nM.

For `CC(C)CN(CC(C)C)c1ccc(-c2ccccc2-c2nnn[nH]2)cc1NC(=O)Cc1ccsc1` [Example 66], the IC50 [1] was 20 nM.

`N#Cc1ccc(CC(=O)Nc2cc(-c3cc(F)ccc3C(=O)O)ccc2N(CCCC(F)(F)F)C2CCCCC2)cc1` [Example 72] showed an IC50 [1] of 1860 nM.

In the case of `Cc1ccc(CC(=O)Nc2cc(-c3ccccc3-c3nnn[nH]3)ccc2N(CC(C)C)CC(C)C)cn1` [Example 55], the IC50 [1] is reported as 120 nM.

In the case of `CC(C)CN(c1cc(F)c(-c2ccccc2C(=O)O)cc1NC(=O)Cc1ccc(C#N)cc1)C1CCCCC1` [Example 84], the IC50 [1] is reported as 30 nM.

Molecule `CCC(CC)N(CC(C)C)c1ccc(-c2ccccc2C(=O)O)cc1NC(=O)Cc1ccc(C)cc1` [Example 62] has an IC50 [1] of 20 nM.

In the case of `CC(C)CN(CC(C)C)c1ccc(-c2ccccc2-c2nnn[nH]2)cc1NC(=O)Cc1ccc(I)cc1` [Example 49, N-(4-(diisobutylamino)-2′-(1H-tetrazol-5-yl)-[1,1′-biphenyl]-3-yl)-2-(4-iodophenyl)acetamide], the IC50 [1] is reported as 3.17 nM.

With `Cc1ccc(CC(=O)Nc2cc(-c3ccccc3-c3nnn[nH]3)ccc2N2CC3CC2CN3Cc2ccccc2)cc1` (stereo not shown) [Example 80] the IC50 [1] was 5.13 nM and the IC50 [2] was 8.44 nM.

In the case of `CCC(CC)N(CC(C)C)c1ccc(-c2cc(F)ccc2C(=O)O)cc1NC(=O)Cc1ccc(C)cc1` [Example 61], the IC50 [1] is reported as 20 nM.

In the case of `Cc1ccc(CC(=O)Nc2cc(-c3ccccc3-c3nnn[nH]3)cc(F)c2N(CC(C)C)C2CCCCC2)cc1` [Example 58], the IC50 [1] is reported as 10 nM.

`N#Cc1ccc(CC(=O)Nc2cc(-c3ccccc3-c3nnn[nH]3)ccc2N(CCCC(F)(F)F)C2CCCCC2)cc1` [Example 71] was tested, and the IC50 [1] was 270 nM.

`N#Cc1ccc(CC(=O)Nc2cc(-c3ccccc3C(=O)O)ccc2N(CCCC(F)(F)F)C2CCCCC2)cc1` [Example 73] gave an IC50 [1] of 2110 nM.

With `CCC(CC)N(CC(C)C)c1ccc(-c2ccccc2-c2nnn[nH]2)cc1NC(=O)Cc1ccc(C)cc1` [Example 63] the IC50 [1] was 4.37 nM.

Molecule `CC(C)CN(CC(C)C)c1ccc(-c2ccccc2-c2nnn[nH]2)cc1NC(=O)Cc1cc(Br)cs1` [Example 64] has an IC50 [1] of 40 nM.

`CC(C)CN(CC(C)C)c1ccc(-c2ccccc2-c2nnn[nH]2)cc1NC(=O)Cc1ccncc1` [Example 57] gave an IC50 [1] of 360 nM.

`C[C@@H]1C[C@H](C)CN(c2ccc(-c3ccccc3-c3nnn[nH]3)cc2NC(=O)Cc2ccc(F)cc2)C1` [Example 22, N-(4-(cis-3,5-Dimethylpiperidin-1-yl)-2′-(1H-tetrazol-5-yl)-[1,1′-biphenyl]-3-yl)-2-(4-fluorophenyl)acetamide] was tested, and the IC50 [2] was 1190 nM.

Molecule `CC(C)CN(CC(C)C)c1ccc(-c2ccccc2-c2nnn[nH]2)cc1NC(=O)Cc1ccc(F)cc1` [Example 12, N-(4-(diisobutylamino)-2′-(1H-tetrazol-5-yl)biphenyl-3-yl)-2-(4-fluorophenyl)acetamide] has an IC50 [1] of 2.99 nM and an IC50 [2] of 10 nM.

Work on `COc1ccc(OC(=O)Nc2cc(-c3ccccc3-c3nnn[nH]3)ccc2N(CC(C)C)CC(C)C)cc1F` [Example 52, 3-fluoro-4-methoxyphenyl (4-(diisobutylamino)-2′-(1H-tetrazol-5-yl)-[1,1′-biphenyl]-3-yl) carbamate] yielded an IC50 [2] of 6560 nM.

`Cc1ccc(CC(=O)Nc2cc(-c3ccccc3C(=O)O)cc(F)c2N(CC(C)C)C2CCCCC2)cc1` [Example 59] showed an IC50 [1] of 80 nM.

For `CC(C)CN(CC(C)C)c1ccc(-c2ccccc2-c2nnn[nH]2)cc1NC(=O)Oc1ccc(OCc2ccccc2)cc1` [Example 53, 4-(benzyloxy)phenyl (4-(diisobutylamino)-2′-(1H-tetrazol-5-yl)-[1,1′-biphenyl]-3-yl)carbamate], the IC50 [2] was 3250 nM.

In the case of `CC(C)CN(CC(C)C)c1ccc(-c2ccccc2-c2nnn[nH]2)cc1NC(=O)Cc1ccc(C(F)(F)F)cc1` [Example 29], the IC50 [2] is reported as 60 nM.

Molecule `COCCOCC(=O)Nc1cc(-c2ccccc2-c2nnn[nH]2)ccc1N(CC(C)C)CC(C)C` [Example 41] has an IC50 [2] of 1830 nM.

With `Cc1ccc(CC(=O)Nc2cc(-c3ccccc3-c3nnn[nH]3)ccc2N(CC(C)C)CC(C)C)c(F)c1` [Example 20, N-(4-(diisobutylamino)-2′-(1H-tetrazol-5-yl)biphenyl-3-yl)-2-(2-fluoro-4-methylphenyl)acetamide] the IC50 [2] was 9.11 nM.

Work on `CC(C)CN(CC(C)C)c1ccc(-c2ccccc2-c2nnn[nH]2)cc1NC(=O)Cc1ccccc1F` [Example 19, N-(4-(diisobutylamino)-2′-(1H-tetrazol-5-yl)biphenyl-3-yl)-2-(2-fluorophenyl)acetamide] yielded an IC50 [2] of 20 nM.

`CC(C)CN(CC(C)C)c1ccc(-c2ccccc2-c2nnn[nH]2)cc1NC(=O)Cc1ccc(Oc2ccccc2)cc1` [Example 34] was tested, and the IC50 [2] was 250 nM.

For `CC(C)CN(c1ccc(-c2ccccc2-c2nnn[nH]2)cc1NC(=O)Cc1ccccc1F)C1CCCCC1` [Example 9, N-(4-(cyclohexyl(isobutyl)amino)-2′-(1H-tetrazol-5-yl)biphenyl-3-yl)-2-(2-fluorophenyl)acetamide], the IC50 [2] was 20 nM.

`CC(C)CN(CC(C)C)c1ccc(-c2ccccc2-c2nnn[nH]2)cc1NC(=O)CS(=O)(=O)c1ccccc1` [Example 32] showed an IC50 [2] of 4010 nM.

`CC(C)CN(c1cc(F)c(-c2ccccc2-c2nnn[nH]2)cc1NC(=O)Cc1ccc(C#N)cc1)C1CCCCC1` [Example 85] gave an IC50 [1] of 40 nM.

In the case of `CC(C)CN(CCOC(C)C)c1ccc(-c2ccccc2C(=O)O)cc1NC(=O)Cc1ccc(C#N)cc1` [Example 68], the IC50 [1] is reported as 4810 nM.

`COc1ccc(CC(=O)Nc2cc(-c3ccccc3-c3nnn[nH]3)ccc2N(CC(C)C)CC(C)C)cc1` [Example 11, N-(4-(diisobutylamino)-2′-(1H-tetrazol-5-yl)biphenyl-3-yl)-2-(4-methoxyphenyl)acetamide] gave an IC50 [2] of 4.05 nM.

Work on `Cc1ccc(OCC(=O)Nc2cc(-c3ccccc3-c3nnn[nH]3)ccc2N(CC(C)C)CC(C)C)cc1` [Example 40] yielded an IC50 [2] of 160 nM.

`Cc1ccc(CC(=O)Nc2cc(-c3cc(F)ccc3C(=O)O)ccc2N(CC(C)C)CC(C)C)cc1` [Example 1, 4′-(Diisobutylamino)-5-fluoro-3′-(2-p-tolylacetamido)biphenyl-2-carboxylic acid] was tested, and the IC50 [2] was 10 nM.

Work on `CC(C)CN(CC(C)C)c1ccc(-c2ccccc2-c2nnn[nH]2)cc1NC(=O)Oc1ccc(Cl)cc1` [Example 45, 4-Chlorophenyl (4-(diisobutylamino)-2′-(1H-tetrazol-5-yl)-[1,1′-biphenyl]-3-yl)carbamate] yielded an IC50 [2] of 3900 nM.

From patent US9895330B2, “IDO inhibitors” (BRISTOL-MYERS SQUIBB COMPANY, priority 2013, dated 2018)
